Laboratory results as given in ChEMBL document CHEMBL3243973, “Synthesis and antitussive activity of aminotetra- (and -hexa-) hydrodibenzofurans” (J Med Chem, 1977).

Tested on: Cavia porcellus
Experiment: Toxicity in Dunkin-Hartley guinea pig assessed as effect on central nervous system at 100 mg/kg, po
Assay type: organism-based
Design: dose 100 mg/kg, route oral
Settings: in vivo

Row | Structure (SMILES) | Activity
1 | Cc1ccc2c(c1)[C@]1(C)CCC(=O)[C@H](NC(=O)CCN3CCN(C)CC3)[C@@H]1O2.Cl | Non-toxic

Tested on: Cavia porcellus
Experiment: Toxicity in Dunkin-Hartley guinea pig assessed as gastrointestinal effect at 100 mg/kg, po
Assay type: organism-based
Design: dose 100 mg/kg, route oral
Settings: in vivo

Row | Structure (SMILES) | Activity
2 | Cc1ccc2c(c1)[C@]1(C)CCC(=O)[C@H](NC(=O)CCN3CCN(C)CC3)[C@@H]1O2.Cl | Non-toxic

Tested on: Cavia porcellus
Experiment: Toxicity in Dunkin-Hartley guinea pig assessed as effect on cardiovascular system at 100 mg/kg, po
Assay type: organism-based
Design: dose 100 mg/kg, route oral
Settings: in vivo

Row | Structure (SMILES) | Activity
3 | Cc1ccc2c(c1)[C@]1(C)CCC(=O)[C@H](NC(=O)CCN3CCN(C)CC3)[C@@H]1O2.Cl | Non-toxic

Tested on: Cavia porcellus
Experiment: Antitussive activity in Dunkin-Hartley guinea pig assessed as inhibition of electrically-stimulated vagus nerve-induced cough at 100 mg/kg, po administered compound prior to electrical stimulation of vagus nerve measured at 20 to 40 mins relative to control
Assay type: functional
Settings: not given

Row | Structure (SMILES) | inhibition in vivo at 100 mg/kg
4 | Cc1ccc2c(c1)[C@]1(C)CCC(=O)[C@H](NC(=O)CCN3CCCCC3)[C@@H]1O2 | 46%
5 | Cc1ccc2c(c1)[C@]1(C)C=C(NC(=O)Cn3cccc3)C(=O)C[C@@H]1O2 | 42%
6 | Cc1ccc2c(c1)[C@]1(C)CCC(=O)[C@H](NC(=O)CCCN3CCN(C)CC3)[C@@H]1O2 | 72%
7 | Cc1ccc2c(c1)[C@]1(C)CC(NC(=O)CCN3CCN(C)CC3)C(=O)C[C@@H]1O2 (stereo partly drawn) | 12.5%
8 | Cc1ccc2c(c1)[C@]1(C)C=C(NC(=O)CN(C)C)C(=O)C[C@@H]1O2 | 33%
9 | Cc1ccc2c(c1)[C@]1(C)C=C(NC(=O)CCN(C)C)C(=O)C[C@@H]1O2 | 58%
10 | Cc1ccc2c(c1)[C@]1(C)CCC(=O)[C@H](NC(=O)CCCCN(C)C)[C@@H]1O2.Cl | > 80%
11 | Cc1ccc2c(c1)[C@]1(C)CCC(=O)[C@H](NC(=O)CCCCCN(C)C)[C@@H]1O2 | 25%
12 | Cc1ccc2c(c1)[C@]1(C)C=C(NC(=O)CN3CCOCC3)C(O)C[C@@H]1O2 (stereo partly drawn) | 29%
13 | Cc1ccc2c(c1)[C@]1(C)C=C(C(=O)NCCN3CCN(C)CC3)C(=O)C[C@@H]1O2 | 62.5%
14 | Cc1ccc2c(c1)[C@]1(C)CCC(=O)[C@H](NC(=O)CCN3CCOCC3)[C@@H]1O2 | 39%
15 | Cc1ccc2c(c1)[C@]1(C)CC/C(=N\NC(N)=O)[C@H](NC(=O)CCN3CCN(C)CC3)[C@@H]1O2 | 25%
16 | Cc1ccc2c(c1)[C@]1(C)CCC(=O)[C@H](NC(=O)CCN(C)CCN(C)C)[C@@H]1O2 | 50%
17 | CCOC(=O)N1CCN(CCC(=O)N[C@H]2C(=O)CC[C@@]3(C)c4cc(C)ccc4O[C@@H]23)CC1 | 33%
18 | Cc1ccc2c(c1)[C@]1(C)CCC3(SCCS3)[C@H](NC(=O)CCN3CCN(C)CC3)[C@@H]1O2 | 46%
19 | Cc1ccc2c(c1)[C@]1(C)CCC(=O)[C@H](NC(=O)OCCN3CCN(C)CC3)[C@@H]1O2 | 33%
20 | Cc1ccc2c(c1)[C@]1(C)CC/C(=N\O)[C@H](NC(=O)CCN3CCN(C)CC3)[C@@H]1O2 | 55%
21 | Cc1ccc2c(c1)[C@]1(C)C=C(NC(=O)CCN3CCN(C)CC3)C(=O)C[C@@H]1O2 | 25%
22 | Cc1ccc2c(c1)[C@]1(C)CCC(O)[C@H](NC(=O)CCN3CCN(C)CC3)[C@@H]1O2 (stereo partly drawn) | 12%
23 | Cc1ccc2c(c1)[C@]1(C)C=C(NC(=O)CN3CCCCC3)C(=O)C[C@@H]1O2 | 17%
24 | CCN1CCN(CCC(=O)N[C@H]2C(=O)CC[C@@]3(C)c4cc(C)ccc4O[C@@H]23)CC1 | 8%
25 | Cc1ccc2c(c1)[C@]1(C)CCC[C@H](NC(=O)CCN3CCN(C)CC3)[C@@H]1O2 | 46%
26 | Cc1ccc2c(c1)[C@]1(C)CCC(O)=C(C(=O)NCCN3CCN(C)CC3)[C@@H]1O2 | 61%

Row | Structure (SMILES) | inhibition in vivo at 100 mg/kg
27 | Cc1ccc2c(c1)[C@]1(C)C=C(NC(=O)CN3CCOCC3)C(=O)C[C@@H]1O2 | 31%
28 | Cc1ccc2c(c1)[C@]1(C)CCC(=O)[C@H](NC(=O)CCOCCN(C)C)[C@@H]1O2 | 37%
29 | Cc1ccc2c(c1)[C@]1(C)CCC(=O)[C@H](NC(=O)CCN3CCN(Cc4ccccc4)CC3)[C@@H]1O2 | 33%
30 | Cc1ccc2c(c1)[C@]1(C)CCC(=O)[C@H](NC(=O)CN3CCN(C)CC3)[C@@H]1O2 | 43%
31 | Cc1ccc2c(c1)[C@]1(C)CCC(=O)[C@H](NC(=O)CCN3CCN(c4ccccc4)CC3)[C@@H]1O2 | 54%
32 | CC(=O)c1cc(C)cc(C2(C)C=C(NC(=O)CCN3CCN(C)CC3)C(=O)CC2)c1O (stereo not drawn) | 22%
33 | Cc1ccc2c(c1)[C@]1(C)CCC(=O)[C@H](NC(=O)CCN3CCN(CCO)CC3)[C@@H]1O2 | 17%
34 | Cc1ccc2c(c1)[C@]1(C)CCC(=O)[C@H](N)[C@@H]1O2 | 33%
35 | Cc1ccc2c(c1)[C@]1(C)CCC(O)[C@H](NCCCN3CCN(C)CC3)[C@@H]1O2 (stereo partly drawn) | 62%
36 | CC(=O)c1cc(C)cc2c1O[C@H]1[C@@H](NC(=O)CCN3CCN(C)CC3)C(=O)CC[C@@]21C | 42%
37 | Cc1ccc2c(c1)[C@]1(C)CCC(=O)[C@H](NC(=O)CN3CCCC3)[C@@H]1O2 | 17%
38 | Cc1ccc2c(c1)[C@]1(C)CCC(=O)[C@H](NC(=O)CCCN(C)C)[C@@H]1O2 | 67%
39 | CC(=O)N1CCN(CCC(=O)N[C@H]2C(=O)CC[C@@]3(C)c4cc(C)ccc4O[C@@H]23)CC1 | 33%
40 | COc1ccc2c3c1O[C@H]1[C@@H](O)C=C[C@H]4[C@@H](C2)N(C)CC[C@@]341 [CODEINE] | > 80%
41 | CCN(CC(=O)N[C@H]1C(=O)CC[C@@]2(C)c3cc(C)ccc3O[C@@H]12)Cc1ccccc1 | 9%
42 | Cc1ccc2c(c1)[C@]1(C)CCC(=O)[C@H](NC(=O)CCN3CCN(C)CC3)[C@@H]1O2.Cl | > 80%
43 | Cc1ccc2c(c1)[C@]1(C)CCC(=O)[C@H](NC(=O)CCN3CCNCC3)[C@@H]1O2 | 75%
44 | Cc1ccc2c(c1)[C@]1(C)CCC3(OCCO3)[C@H](NC(=O)CCN3CCN(C)CC3)[C@@H]1O2 | 11%
45 | Cc1ccc2c(c1)[C@]1(C)CCC(=O)[C@H](NC(=O)CCN(C)C)[C@@H]1O2 | 79%
46 | CC(=O)N[C@H]1C(=O)CC[C@@]2(C)c3cc(C)ccc3O[C@@H]12 | 25%
47 | Cc1ccc2c(c1)[C@]1(C)CCC(=O)[C@H](NC(=O)CCN3CCCC3)[C@@H]1O2 | 44%
48 | Cc1cc([N+](=O)[O-])c2c(c1)[C@]1(C)CCC(=O)[C@H](NC(=O)CCN3CCN(C)CC3)[C@@H]1O2 | > 80%
49 | CCN(CC)CCC(=O)N[C@H]1C(=O)CC[C@@]2(C)c3cc(C)ccc3O[C@@H]12 | 33%

Tested on: Cavia porcellus
Experiment: Antitussive activity in po dosed Dunkin-Hartley guinea pig assessed as inhibition of electrically-stimulated vagus nerve-induced cough administered compound prior to electrical stimulation of vagus nerve measured at 20 to 40 mins
Assay type: functional
Settings: not given

Row | Structure (SMILES) | ED50
50 | Cc1ccc2c(c1)[C@]1(C)CCC(=O)[C@H](NC(=O)CCCCN(C)C)[C@@H]1O2.Cl | 71 mg/kg
51 | COc1ccc2c3c1O[C@H]1[C@@H](O)C=C[C@H]4[C@@H](C2)N(C)CC[C@@]341 [CODEINE] | 38.5 mg/kg
52 | Cc1ccc2c(c1)[C@]1(C)CCC(=O)[C@H](NC(=O)CCN3CCN(C)CC3)[C@@H]1O2.Cl | 32.5 mg/kg
53 | Cc1cc([N+](=O)[O-])c2c(c1)[C@]1(C)CCC(=O)[C@H](NC(=O)CCN3CCN(C)CC3)[C@@H]1O2 | 34 mg/kg
